# Results published in US20110086809A1, “Enteral Administration Of Arginine-Glutamine Dipeptide To Support Retinal, Intestinal, Or Nervous System Development” (priority 2009, published 2011).
# What was measured:
# [1] = tested on: neonatal mouse model of oxygen-induced retinopathy; experiment: Neonatal mouse model of oxygen-induced retinopathy, pre-retinal nuclei count; type: in vivo; settings: FIG. 1
# Experimental: In the neonatal mouse model of oxygen-induced retinopathy, 7-day old mice are placed with their nursing dams in a 75% oxygen atmosphere for 5 days. Mouse pups receive twice a day gavage feedings of arginine-glutamine dipeptide or control solution (50 μL) starting on postnatal day 12 (P12) and continuing through postnatal day 17 (P17). Gavage feeds include a control (0.9% sodium chloride) and the test compounds and different doses of arginine-glutamine dipeptide (1.0, 2.5 and 5 g/kg·day). The daily dosage of the dipeptide is divided evenly between the two daily gavage feedings.
# After the fifth day following return to normoxia (P17), the animals are euthanized by injection of a lethal dose of a combination of ketamine (70 mg/kg body weight) and xylazine (15 mg/kg body weight) followed by cervical dislocation. The eyes are removed and fixed in 4% paraformaldehyde, embedded in paraffin, and sectioned. Pre-retinal nuclei are counted by masked observers. Efficacy of treatment is calculated as the percent average nuclei per section in the eyes of arginine-glutamine dipeptide treated animals versus control animals.
# Some of the eyes are taken for qualitative retinal flatmount analysis. For these mice, at the time of euthanasia, the mice are perfused with fluorescein isothiocyanate-labeled dextran to visualize the vasculature. […]
# [2] = tested on: intestinal injury induced by hyperoxia in a mouse model; experiment: Histological intestinal damage score in hyperoxia-exposed neonatal mice; type: in vivo; settings: ileum histology, score 0 to 4+ (0=no damage, 4=severe damage); hyperoxic conditions plus dipeptide by gavage; hyperoxia alone 3.5; FIG. 2
# Experimental: (§1) In the neonatal mouse model of oxygen-induced retinopathy, 7-day old mice are placed with their nursing dams in a 75% oxygen atmosphere for 5 days. Mouse pups receive twice a day gavage feedings of arginine-glutamine dipeptide or control solution (20 μL) starting on postnatal day 12 (P12) and continuing through postnatal day 17 (P17). In one experiment, different dosages of arginine-glutamine dipeptide (1.0, 2.5 and 5 g/kg·day as a hydrochloride salt, Bachem, Babendorf, Switzerland) are tested. In a second experiment, arginine-glutamine dipeptide (5 g/kg day) is given and a normoxia group is used as a control.
# (§2) After the fifth day following return to normoxia (P17), the animals are euthanized by injection of a lethal dose of a combination of ketamine (70 mg/kg body weight) and xylazine (15 mg/kg body weight) followed by cervical dislocation.
# Intestinal injury is evaluated using histological techniques. A portion of intestine from the ileum is fixed in 10% (w·v) neutral buffered formalin for 24 hours for light microscopy. The intestine is paraffin embedded, cut into 4 μm sections, mounted on glass slides, and stained with hematoxylin and eosin according to standard procedures. Histological analyses are performed using a damage scoring system from 0 to 4+ (0=no damage, 4=severe damage with mucosal sloughing) to determine the severity of the intestinal injury.
# Bcl-2 = experiment: Brain Bcl-2 levels by immunoblotting in hyperoxia-exposed neonatal mice; type: in vivo; settings: mouse brain, hyperoxic conditions, treated with dipeptide; FIG. 3
# Experimental: as §1, §2
# Bcl-2 levels are determined using standard immunoblotting techniques. The brain is homogenized with a Polytron homogenizer, and the homogenates are stored in aliquots at −80° C. Gel electrophoresis is performed using the BioRad electrophoresis system (Carlsbad, Calif.). […] Protein bands are quantified by densitometry.
# caspase-3 = experiment: Brain caspase-3 colorimetric activity assay in hyperoxia-exposed neonatal mice; type: in vivo, mouse; settings: compared to hyperoxic mice; FIG. 4
# Experimental: as §1, §2
# Caspase-3 activity is determined using a Caspase-3 Colorimetric Activity Assay Kit (Chemicon International, Inc., Temecula, Calif.). The brain is homogenized with a Polytron homogenizer, and the homogenates are stored in aliquots at −80° C.
substance,measurement,setting,value
arginine-glutamine dipeptide,dose/response of reduction of nuclei per section,"[1]; dosages between 1 g/kg·day and 5 g/kg·day, highest effectiveness at 5 g/kg·day",highest level of effectiveness was shown at 5 g/kg·day
same,average number of nuclei per section in the eyes,"[1]; neonatal mice exposed to hyperoxia (75% oxygen, 5 days), gavage twice a day P12-P17, 1, 2.5 and 5 g/kg·day, versus control (0.9% sodium chloride)",decreased at all levels of administration
same,average intestinal damage score,[2],1.67
same,increased Bcl-2 expression in brain,Bcl-2,33%
same,reduction in brain caspase-3 activity,caspase-3,32%
